Test results: patent publication US7304093B2, “Ketone compounds and compositions for cholesterol management and related uses” (Esperion Therapeutics, Inc., priority 2000, dated 2007)
pIC50: −log10 of the molar value. Read-outs that look alike come from different tables or passages of the source.

Assays:
[1] = system: primary rat hepatocytes; experiment: Inhibition of lipid synthesis ([1-14C]-acetate incorporation) in primary cultures of rat hepatocytes; type: cell-based; conditions: Hepatocyte, 4 h incubation with [1-14C]-acetate
Method: Compounds were tested for inhibition of lipid synthesis in primary cultures of rat hepatocytes. Male Sprague-Dawley rats were anesthetized with intraperitoneal injection of sodium pentobarbital (80 mg/kg). Rat hepatocytes were isolated essentially as described by the method of Seglen (Seglen, P. O. Hepatocyte suspensions and cultures as tools in experimental carcinogenesis. J. Toxicol. Environ. Health 1979, 5, 551-560). Hepatocytes were suspended in Dulbecco's Modified Eagles Medium containing 25 mM D-glucose, 14 mM HEPES, 5 mM L-glutamine, 5 mM leucine, 5 mM alanine, 10 mM lactate, 1 mM pyruvate, 0.2% bovine serum albumin, 17.4 mM non-essential amino acids, 20% fetal bovine serum, […] and 20 μg/mL gentamycin) and plated at a density of 1.5×10^5 cells/cm^2 on collagen-coated 96-well plates. Four hours after plating, media was replaced with the same media without serum. Cells were grown overnight to allow formation of monolayer cultures. Lipid synthesis incubation conditions were initially assessed to ensure the linearity of [1-^14C]-acetate incorporation into hepatocyte lipids for up to 4 hours. Hepatocyte lipid synthesis inhibitory activity was assessed during incubations in the presence of 0.25 μCi [1-^14C]-acetate/well (final radiospecific activity in assay is 1 Ci/mol) and 0, 1, 3, 10, 30, 100 or 300 μM of compounds for 4 hours. At the end of the 4-hour incubation period, medium was discarded and cells were washed twice with ice-cold phosphate buffered saline and stored frozen prior to analysis. To determine total lipid synthesis, 170 μl of MicroScint-E® and 50 μl water was added to each well to extract and partition the lipid soluble products to the upper organic phase containing the scintillant. Lipid radioactivity was assessed by scintillation spectroscopy in a Packard TopCount NXT.

[2] = system: female obese Zucker rats; experiment: Serum lipid and glycemic control variables in chow-fed obese female Zucker rats, daily oral gavage for two weeks; type: in vivo, rat; conditions: Rattus norvegicus, Table 9; for change in vivo at 100 mg/kg: 100 mg/kg daily oral; for change in vivo at 30 mg/kg: 30 mg/kg daily oral
Method: Ten- to twelve-week old (400-500 grams) female Zucker fatty rats Cr1: (Zuc)-faBR were obtained from Charles River Laboratories. Animals were acclimated to the laboratory environment for seven days. During the acclimation and study period, animals were housed by group in shoebox polycarbonate cages on Cellu-Dri bedding. The temperature and humidity in the animals' quarters (68-78° F.; 30-75% RH) were monitored and the airflow in the room was sufficient to provide several exchanges per hour with 100% fresh filtered air. An automatic timing device provided an alternating 12-hour cycle of light and dark. Rats received pelleted Purina Laboratory Rodent Chow® (5001) prior to and during the drug intervention period except for a 6-hour phase prior to blood sampling. Fresh water was supplied ad libitum via an automatic watering system. Compounds were dissolved, suspended by mixing in a dosing vehicle consisting of 1.5% carboxymethylcellulose/0.2% Tween 20 or 20% ethanol and 80% polyethylene glycol-200 [v/v]. Dose volume of vehicle or vehicle plus each compound was set at 0.25% of body weight in order to deliver the appropriate dose. Doses were administered daily by oral gavage, approximately between 8-10 AM. Regarding blood sampling, animals were fasted for 6 hours prior to all blood collections. Prior to and after 7 days of dosing, a 1.0- to 2.0-mL sample of blood was collected by administering O2/CO2 anesthesia and bleeding from the orbital venous plexus. Following 14 days of dosing, blood was collected by cardiac puncture after euthanasia with CO2. All blood samples were processed for separation of serum and stored at −80° C. until analysis. Commercially available kits were used to determine serum triglycerides (Roche Diagnostic Corporation, Kit No. 148899 or Boehringer Mannheim, Kit No. 1488872), total cholesterol (Roche Diagnostic Corporation, Kit No. 450061), non-esterified fatty acids (Wako Chemicals, Kit No. 994-75409) and β-hydroxybutyrate (Wako Chemicals, Kit No. 417-73501 or Sigma Kit. No. 310-0) on a Hitachi 912 Automatic Analyzer (Roche Diagnostic Corporation). In some instances, an in-house cholesterol reagent was used to determine total serum cholesterol levels. Serum lipoprotein cholesterol levels were determined by lipoprotein profile analysis. Lipoprotein profiles were analyzed using gel-filtration chromatography on a Superose 6HR (1×30 cm) column equipped with on-line detection of total cholesterol as described by Kieft et al (Kieft, K. A.; Bocan, T. M.; Krause, B. R. Rapid on-line determination of cholesterol distribution among plasma lipoproteins after high-performance gel filtration chromatography. J. Lipid Res. 1991, 32, 859-866.). The total cholesterol content of each lipoprotein was calculated by multiplying the independent values determined for serum total cholesterol by the percent area of each lipoprotein in the profile. The percent body weight gain and the ratio of liver to body weight is also determined. Selected data are shown as absolute values or as a percent change of the pretreatment values in Tables 8 and 9.
Select compounds (214c, 210c, and 210g) were further evalutated in the Zucker rat by performing a full dose response and measuring additional scrum variables including markers for diabetes (Tables 10-12).

[3] = 168 h, 1 wk, read-out: HDL-Cholesterol, Percent Change from Pre-Treatment
[4] = 168 h, 1 wk, read-out: NonHDL-Cholesterol, Percent Change from Pre-Treatment
[5] = 168 h, 1 wk, read-out: TG, Percent Change from Pre-Treatment
[6] = 336 h, 2 wk, read-out: HDL-Cholesterol, Percent Change from Pre-Treatment
[7] = 336 h, 2 wk, read-out: NonHDL-Cholesterol, Percent Change from Pre-Treatment
[8] = 336 h, 2 wk, read-out: TG, Percent Change from Pre-Treatment
[9] = Table 7, ranges: confidence of estimate insufficient to assign a value

Structure (SMILES) | pIC50 ([1]; Table 6) | change in vivo at 100 mg/kg [2, 3] [%] | change in vivo at 100 mg/kg [2, 4] [%] | change in vivo at 100 mg/kg [2, 5] [%] | change in vivo at 100 mg/kg [2, 6] [%] | change in vivo at 100 mg/kg [2, 7] [%] | change in vivo at 100 mg/kg [2, 8] [%] | pIC50 [1, 9] | change in vivo at 30 mg/kg [2, 3] [%] | change in vivo at 30 mg/kg [2, 4] [%] | change in vivo at 30 mg/kg [2, 5] [%] | change in vivo at 30 mg/kg [2, 6] [%] | change in vivo at 30 mg/kg [2, 7] [%] | change in vivo at 30 mg/kg [2, 8] [%]
CC(C)(C)OC(=O)C1(CCCCC(=O)CCCCC2(C(=O)OC(C)(C)C)CC2)CC1 [Compound 106d, t-Butyl 1-[9-[1-(tert-butoxycarbonyl)cyclopropyl]-5-oxononyl]-1-cyclopropanecarboxylate] | 4.46 |  |  |  |  |  |  |  |  |  |  |  |  | 
CCOC(=O)C(C)(C)CCCCCCCC(=O)CCCCCCCC(C)(C)C(=O)OCC [Compound 106n, Diethyl 10-oxo-2,2,18,18-tetramethyl-nonadecanedioate] | 4.89 |  |  |  |  |  |  |  |  |  |  |  |  | 
CC(CCCCC(=O)CCCCC(C)(C(=O)O)c1ccccc1)(C(=O)O)c1ccccc1 (centres unmarked) [Compound 210d, 2,12-Dimethyl-7-oxo-2,12-diphenyltridecanedioic acid] |  | 43 | 36 | -36 | 45 | 79 | -8 |  |  |  |  |  |  | 
CC(C)Cc1ccc(C(C)(CCCCC(=O)CCCCC(C)(C(=O)O)c2ccc(CC(C)C)cc2)C(=O)O)cc1 (centres unmarked) [Compound 210f, 2,12-Bis-(4-isobutylphenyl)-2,12-dimethyl-7-oxotridecanedioic acid] |  | 11 | -40 | -63 | 62 | -44 | -66 | 3.52 to 4.00 |  |  |  |  |  | 
CC(C)(CCCCCCC(=O)CCCCCCC(C)(C)C(=O)O)C(=O)O [Compound 210i, 2,2,16,16-Tetramethyl-9-oxoheptadecanedioic acid] |  |  |  |  |  |  |  | 5.05 |  |  |  |  |  | 
CC(C)(CO)CCCC(=O)CCCC(C)(C)CO [Compound 214a, 1,11-Dihydroxy-2,2,10,10-tetramethylundecan-6-one] |  | 24 | -23 | -31 | 2 | 28 | 0 | 4.57 |  |  |  |  |  | 
CC(CO)(CCCC(=O)CCCC(C)(CO)c1ccccc1)c1ccccc1 (centres unmarked) [Compound 214b, 1,11-Dihydroxy-2,10-dimethyl-2,10-diphenylundecan-6-one] |  | -14 | -18 | -20 | -11 | -32 | -17 | 3.52 to 4.00 |  |  |  |  |  | 
CC(CO)(CCCCC(=O)CCCCC(C)(CO)c1ccccc1)c1ccccc1 (centres unmarked) [Compound 214d, 1,13-Dihydroxy-2,12-dimethyl-2,12-diphenyltridecan-7-one] |  |  |  |  |  |  |  | 3.52 to 4.00 | -1 | -30 | -24 | -27 | 30 | 20
Cc1ccc(C(C)(CO)CCCCC(=O)CCCCC(C)(CO)c2ccc(C)cc2)cc1 (centres unmarked) [Compound 214e, 1,13-Dihydroxy-2,12-dimethyl-2,12-di-p-tolyltridecan-7-one] |  |  |  |  |  |  |  | 3.52 to 4.00 |  |  |  |  |  | 
CC(C)Cc1ccc(C(C)(CO)CCCCC(=O)CCCCC(C)(CO)c2ccc(CC(C)C)cc2)cc1 (centres unmarked) [Compound 214f, 1,13-Dihydroxy-2,12-bis-(4-isobutylphenyl)-2,12-dimethyltridecan-7-one] |  | -5 | 28 | -11 | 6 | 34 | -15 |  |  |  |  |  |  | 
CC(C)(CO)CCCCCC(=O)CCCCCC(C)(C)CO [Compound 214g, 1,15-Dihydroxy-2,2,14,14-tetramethylpentadecan-8-one] |  | 76 | -91 | -92 | 135 | -88 | -92 | 5.52 |  |  |  |  |  | 
CC(CO)(CCCCCC(=O)CCCCCC(C)(CO)c1ccccc1)c1ccccc1 (centres unmarked) [Compound 214h, 1,15-Dihydroxy-2,14-dimethyl-2,14-diphenylpentadecan-8-one] |  | 2 | 29 | 24 | 10 | 9 | 1 | 4.03 |  |  |  |  |  | 
CC(C)(CO)CCCCCCC(=O)CCCCCCC(C)(C)CO [Compound 214i, 1,17-Dihydroxy-2,2,16,16-tetramethylheptadecan-9-one] |  |  |  |  |  |  |  | 5.70 | 85 | -50 | -58 | 61 | -32 | -33
CC(C)(CO)CCCCC(=O)CCCC(C)(C)CO [Compound 217, 1,12-Dihydroxy-2,2,11,11-tetramethyldodecan-6-one] |  | 46 | -26 | -40 | 48 | 4 | -11 | 5.00 to 5.52 |  |  |  |  |  | 
CC(C)(CO)CCCCC(=O)CCCCC(C)(CO)c1ccccc1 (centres unmarked) [Compound 218, 1,13-Dihydroxy-2,2,12-trimethyl-12-phenyltridecan-7-one] |  |  |  |  |  |  |  | 6.00 | -18 | 17 | 18 | -5 | -8 | -7
CC(C)(CO)CCCCCC(=O)CCCCC(C)(C)CO [Compound 219, 1,14-Dihydroxy-2,2,13,13-tetramethyltetradecan-7-one] |  | 78 | -70 | -85 | 78 | -78 | -87 | 5.70 |  |  |  |  |  | 
